According to patent US20060035291A1, “Method of detecting cellular immunity and application thereof to drugs” (priority 2001, published 2006):
Where two headings read alike, the source gives them in different places. Where no end group is shown, it is not given here.

How the values were obtained:
healthy donors [1] = settings: in vivo
[2] = tested on: HLA-A24 restricted antigen peptide-specific T cells (CTL precursors) in PBMCs; type: cell-based, human; settings: for CTL precursor induction assay, response level per well: quadricate assay
healthy donors [3] = experiment: Allergic skin reaction (type I allergy) skin test in healthy donors
cancer patients = experiment: Skin test for immediate and delayed type hypersensitivity in cancer patients
Protocol: For the skin test, 10 μg of 5 kinds of peptides was subcutaneously administered to each patient. Saline was used as the negative control. 20 minutes and 24 hours after injection, immediate and delayed type hypersensitivity (DHT) reactions were looked for. The skin test reaction was determined as positive if erythema and sclerosis were more than 10 mm in diameter. If the immediate hypersensitivity reaction was negative, a peptide was administered. Each peptide solution (3 mg/ml) was mixed with the same amount of IFA (Montanide ISA-51) and emulsified in a 5-mI plastic syringe, and 3 ml of the emulsion was subcutaneously administered to the lateral femoral region every two weeks. Serum PSA level was measured 4 weeks after vaccination. The time passed was defined as the time from the registration day to the date when the progress of the target disease was recorded. For patients who chose to discontinue the study without any progress of the target disease (e.g., increase in PSA) it was determined that the disease had progressed at the time the study was stopped.
When an immediate hypersensitivity reaction positive in the skin test of one of these peptides, that peptide was vaccinated if the fifth peptide of criteria A, B, or Z was negative in the skin test. […] In Table 14, o signifies vaccine peptides given to each patient.
Vaccine was administered to HLA-A24 positive patients with progressive cancer as following. CypB91 was given to lung cancer patients, ART475 to ovarian cancer patients, and SART3109 to colorectal cancer patients. None of the patients received any steroids or other immunosuppressants from 4 weeks before the beginning of this study to the end of the study. When the skin test was negative, 1 ml of peptide solution (1 mg/ml) was emulsified with the same amount of Freund's incomplete adjuvant (Montanide ISA-51) and injected subcutaneously. In this embodiment, all patients were vaccinated at least three times every two weeks, and up to seventeen times, depending on the patient's wishes.

[4] = HLA-A24 positive cervical cancer patient, after more than 5 doses of cancer vaccine
[5] = HLA-A24 positive cervical cancer patient, before vaccination, response to HIV-C1R-A24 cells subtracted

## KFHRVIKDG
Healthy donors [1]
  number of donors in whom the skin reaction was significantly decreased (<=0.25 of the rate in redness range): 2

## GFLRHAAL [ART4 13-1G]
Healthy donors [1]
  suppressed cases FR ≦ 0.25: 0/4

## DYPSLSATDI [ART475]
[2]; [4]
  IFN-γ production 1st well: 9 pg/well
  IFN-γ production 2nd well: 2 pg/well
  IFN-γ production 3rd well: 60 pg/well
[2]; HLA-A24 positive cervical cancer patient, before vs after 3rd and 6th dose
  change in reactivity of PBMCs to the vaccinated peptide after vaccination: increase in reactivity
[2]; HRPC Pt. 3, pre-vaccinated PBMCs
  CTL precursor induction assay, response level per well: ⊚AE
[2]; HRPC Pt. 4, pre-vaccinated PBMCs
  CTL precursor induction assay, response level per well: ⊚B
Healthy donors [1]
  rate of skin reaction occurrence (donors): no such response

## PFHRVIPDF
Healthy donors [3]; healthy donor HD1
  Allergic skin reaction, area of flare: 525 mm × mm
Healthy donors [3]; healthy donor HD2
  Allergic skin reaction, area of flare: 2000 mm × mm
Healthy donors [3]; healthy donor HD3
  Allergic skin reaction, area of flare: 1400 mm × mm
Healthy donors [3]; healthy donor HD6
  Allergic skin reaction, area of flare: 700 mm × mm
Healthy donors [3]; healthy donor HD10
  Allergic skin reaction, area of flare: 270 mm × mm

## EYRGFTQDF [SART1690]
[2]; [4]
  IFN-γ production 1st well: 34 pg/well
  IFN-γ production 2nd well: 148 pg/well
  IFN-γ production 3rd well: 329 pg/well
[2]; [5]
  IFN-γ production 1st well: <0 pg/well
  IFN-γ production 3rd well: 133 pg/well
[2]; HRPC Pt. 5, pre-vaccinated PBMCs
  CTL precursor induction assay, response level per well: C (C, 0.05<p≦0.1 and 50≦net)
[2]; HRPC Pt. 7, pre-vaccinated PBMCs
  CTL precursor induction assay, response level per well: ⊚BE

## KGHRVIKDF [CypB 84-2G]
Healthy donors [1]
  suppressed cases FR ≦ 0.25: 1/7

## TFHRVIKDF
Healthy donors [3]; healthy donor HD1
  Allergic skin reaction, area of flare: 540 mm × mm
Healthy donors [3]; healthy donor HD2
  Allergic skin reaction, area of flare: 1400 mm × mm
Healthy donors [3]; healthy donor HD3
  Allergic skin reaction, area of flare: 750 mm × mm
Healthy donors [3]; healthy donor HD6
  Allergic skin reaction, area of flare: 450 mm × mm
Healthy donors [3]; healthy donor HD10
  Allergic skin reaction, area of flare: 300 mm × mm

## KFHRVIGDF
Healthy donors [1]
  number of donors in whom the skin reaction was significantly decreased (<=0.25 of the rate in redness range): 1

## AGLRHAAL
Healthy donors [1]
  skin reaction: did not induce skin reaction in any of 4 donors

## KFHRVIPKF
Healthy donors [3]; healthy donor HD1
  Allergic skin reaction, area of flare: 600 mm × mm
Healthy donors [3]; healthy donor HD2
  Allergic skin reaction, area of flare: 750 mm × mm
Healthy donors [3]; healthy donor HD3
  Allergic skin reaction, area of flare: 1225 mm × mm
Healthy donors [3]; healthy donor HD6
  Allergic skin reaction, area of flare: 500 mm × mm
Healthy donors [3]; healthy donor HD10
  Allergic skin reaction, area of flare: 625 mm × mm

## AFLGHAAL [ART4 13-4G]
Healthy donors [1]
  skin test, area of flare: 0 mm × mm
  suppressed cases FR ≦ 0.25: 4/4

## AFLRHGAL
Healthy donors [1]
  number of donors with a significant decrease in skin reaction: one

## AFLRHAGL [ART4 13-7G]
Healthy donors [1]
  suppressed cases FR ≦ 0.25: 0/4

## KFHRVGKDF [CypB 84-6G]
Healthy donors [1]
  suppressed cases FR ≦ 0.25: 3/7

## AFLRHGAL [ART4 13-6G]
Healthy donors [1]
  suppressed cases FR ≦ 0.25: 1/4

## SFHRVIKDF
Healthy donors [3]; 5 healthy donors
  skin reaction compared with human CypB84: weaker skin reaction
Healthy donors [3]; healthy donor HD1
  Allergic skin reaction, area of flare: 0 mm × mm
Healthy donors [3]; healthy donor HD2
  Allergic skin reaction, area of flare: 400 mm × mm
Healthy donors [3]; healthy donor HD3
  Allergic skin reaction, area of flare: 225 mm × mm
Healthy donors [3]; healthy donor HD6
  Allergic skin reaction, area of flare: 255 mm × mm
Healthy donors [3]; healthy donor HD10
  Allergic skin reaction, area of flare: 100 mm × mm

## VYDYNCHVDL [SART3109]
Healthy donors [1]
  rate of skin reaction occurrence: 17%
  rate of skin reaction occurrence (donors): 7/41

## GFHRVIKDF
Healthy donors [1]
  number of donors in whom the skin reaction was significantly decreased (<=0.25 of the rate in redness range): 1

## KFHGVIKDF
Healthy donors [1]
  number of donors in whom the skin reaction was significantly decreased (<=0.25 of the rate in redness range): 1

## KFGRVIKDF [CypB 84-3G]
Healthy donors [1]
  suppressed cases FR ≦ 0.25: 2/7

## AFLRGAAL
Healthy donors [1]
  number of donors with a significant decrease in skin reaction: one

## KGHRVIKDF
Healthy donors [1]
  number of donors in whom the skin reaction was significantly decreased (<=0.25 of the rate in redness range): 1

## DYLRSVLEDF [lck488]
[2]; [4]
  IFN-γ production 1st well: 25 pg/well
  IFN-γ production 2nd well: 99 pg/well
[2]; [5]
  IFN-γ production 1st well: <0 pg/well
  IFN-γ production 2nd well: <0 pg/well
  IFN-γ production 3rd well: 25 pg/well
Cancer patients; colorectal cancer patient 1
  peptide-specific DTH reaction: observed after the 6th vaccination
Cancer patients; colorectal cancer patient 4, after the 3rd vaccination
  peptide-specific DTH reaction: exhibited DTH reaction

## AFLRHAAG
Healthy donors [1]
  number of donors with a significant decrease in skin reaction: one
